Experiment: molar heat capacity at constant pressure
Conditions: 101.33 kPa

OC[C@@H](O)[C@H](O)[C@@H](O)CO [xylitol]
molar heat capacity at constant pressure [J/K/mol]
Conditions | Small sample (50 mg) DSC | relaxation calorimetry
261.15 K, Crystal | 182.91 | –
262.13 K, Crystal | – | 182.23
262.15 K, Crystal | 183.56 | –
263.15 K, Crystal | 184.15 | –
264.15 K, Crystal | 184.93 | –
265.15 K, Crystal | 185.58 | –
266.15 K, Crystal | 186.01 | –
267.15 K, Crystal | 186.68 | –
268.15 K, Crystal | 187.58 | –
269.15 K, Crystal | 188.3 | –
270 K, Crystal | – | 187.42
270.15 K, Crystal | 188.75 | –
271.15 K, Crystal | 189.44 | –
272.13 K, Crystal | – | 189.16
272.15 K, Crystal | 190.09 | –
273.15 K, Crystal | 190.92 | 189.56
274.15 K, Crystal | 191.54 | –
275.15 K, Crystal | 192.36 | –
276.15 K, Crystal | 193.1 | –
277.15 K, Crystal | 193.74 | –
278.15 K, Crystal | 194.49 | –
279.15 K, Crystal | 195.25 | –
280 K, Crystal | – | 194.26
280.15 K, Crystal | 195.98 | –
281.15 K, Crystal | 196.83 | –
282.15 K, Crystal | 197.52 | –
282.21 K, Crystal | – | 195.78
283.15 K, Crystal | 198.24 | –
284.15 K, Crystal | 198.78 | –
285.15 K, Crystal | 199.46 | –
286.15 K, Crystal | 200.2 | –
287.15 K, Crystal | 200.97 | –
288.15 K, Crystal | 201.79 | –
289.15 K, Crystal | 202.38 | –
290 K, Crystal | – | 201.22
290.15 K, Crystal | 203.24 | –
291.15 K, Crystal | 204 | –
292.15 K, Crystal | 204.53 | –
292.34 K, Crystal | – | 202.53
293.15 K, Crystal | 205.39 | –
294.15 K, Crystal | 206.39 | –
295.15 K, Crystal | 207.02 | –
296.15 K, Crystal | 207.76 | –
297.15 K, Crystal | 208.58 | –
298.15 K, Crystal | 209.23 | 207
299.15 K, Crystal | 209.95 | –
300 K, Crystal | – | 208.32
300.15 K, Crystal | 210.89 | –
301.15 K, Crystal | 211.84 | –
302.15 K, Crystal | 212.55 | –
302.38 K, Crystal | – | 210.13
303.15 K, Crystal | 213.48 | –
304.15 K, Crystal | 214.26 | –
305 K, Crystal | 215.28 | –
305.15 K, Crystal | 215.11 | –
306.15 K, Crystal | 216.14 | –
307.15 K, Crystal | 217.06 | –
308.15 K, Crystal | 217.82 | –
309.15 K, Crystal | 218.75 | –
310 K, Crystal | 219.82 | –
310.15 K, Crystal | 219.97 | –
311.15 K, Crystal | 220.76 | –
312.15 K, Crystal | 221.67 | –
313.15 K, Crystal | 222.64 | –
314.15 K, Crystal | 223.41 | –
315 K, Crystal | 224.06 | –
315.15 K, Crystal | 224.2 | –
316.15 K, Crystal | 225.05 | –
317.15 K, Crystal | 225.99 | –
318.15 K, Crystal | 226.72 | –
319.15 K, Crystal | 227.57 | –
320 K, Crystal | 228.13 | –
320.15 K, Crystal | 228.44 | –
321.15 K, Crystal | 229.1 | –
322.15 K, Crystal | 229.81 | –
323.15 K, Crystal | 230.76 | –
324.15 K, Crystal | 231.54 | –
325 K, Crystal | 232.15 | –
325.15 K, Crystal | 232.32 | –
326.15 K, Crystal | 233.13 | –
327.15 K, Crystal | 234.07 | –
328.15 K, Crystal | 234.91 | –
329.15 K, Crystal | 235.68 | –
330 K, Crystal | 236.23 | –
330.15 K, Crystal | 236.5 | –
331.15 K, Crystal | 237.35 | –
332.15 K, Crystal | 238.2 | –
333.15 K, Crystal | 238.98 | –
334.15 K, Crystal | 239.74 | –
335 K, Crystal | 240.51 | –
335.15 K, Crystal | 240.54 | –
336.15 K, Crystal | 241.37 | –
337.15 K, Crystal | 242.09 | –
338.15 K, Crystal | 242.99 | –
339.15 K, Crystal | 244.05 | –
340 K, Crystal | 245.1 | –
340.15 K, Crystal | 244.86 | –
341.15 K, Crystal | 245.84 | –
342.15 K, Crystal | 246.78 | –
343.15 K, Crystal | 247.9 | –
345 K, Crystal | 250.14 | –
384.05 K, Liquid | 437.55 | –
384.15 K, Liquid | 437.54 | –
385 K, Liquid | 437.31 | –
385.15 K, Liquid | 437.23 | –
386.15 K, Liquid | 436.89 | –
387.15 K, Liquid | 436.55 | –
388.15 K, Liquid | 436.95 | –
389.15 K, Liquid | 436.95 | –
390 K, Liquid | 437.71 | –
390.15 K, Liquid | 437.09 | –
391.15 K, Liquid | 437.18 | –
392.15 K, Liquid | 437.31 | –
393.15 K, Liquid | 437.7 | –
394.15 K, Liquid | 438.11 | –
395 K, Liquid | 438.53 | –
395.15 K, Liquid | 438.36 | –
396.15 K, Liquid | 438.65 | –
397.15 K, Liquid | 439 | –
398.15 K, Liquid | 439.02 | –
399.15 K, Liquid | 439.36 | –
400 K, Liquid | 439.66 | –
400.15 K, Liquid | 439.81 | –
401.15 K, Liquid | 440.13 | –
402.15 K, Liquid | 440.23 | –
403.15 K, Liquid | 440.54 | –
404.15 K, Liquid | 441 | –
405 K, Liquid | 440.98 | –
405.15 K, Liquid | 441.38 | –
406.15 K, Liquid | 441.87 | –
407.15 K, Liquid | 442.08 | –
408.15 K, Liquid | 442.44 | –
409.15 K, Liquid | 442.7 | –
410 K, Liquid | 442.38 | –
410.15 K, Liquid | 442.88 | –
411.15 K, Liquid | 443.4 | –
412.15 K, Liquid | 443.35 | –
413.15 K, Liquid | 443.38 | –
414.15 K, Liquid | 443.78 | –
415 K, Liquid | 443.73 | –
415.15 K, Liquid | 443.82 | –
416.15 K, Liquid | 444.07 | –
417.15 K, Liquid | 444.35 | –
418.15 K, Liquid | 444.54 | –
419.15 K, Liquid | 444.75 | –
420 K, Liquid | 444.92 | –
420.15 K, Liquid | 444.83 | –
421.15 K, Liquid | 444.89 | –
422.15 K, Liquid | 445.1 | –
423.15 K, Liquid | 445.32 | –
424.15 K, Liquid | 445.31 | –
425 K, Liquid | 445.83 | –
425.15 K, Liquid | 445.36 | –
426.15 K, Liquid | 445.64 | –
427.15 K, Liquid | 445.75 | –
428.15 K, Liquid | 445.78 | –
429.15 K, Liquid | 445.83 | –
430 K, Liquid | 446.33 | –
430.15 K, Liquid | 445.91 | –
431.15 K, Liquid | 446.11 | –
432.15 K, Liquid | 446.26 | –
433.15 K, Liquid | 446.16 | –
434.15 K, Liquid | 446.18 | –
435 K, Liquid | 446.32 | –
435.15 K, Liquid | 446.7 | –
436.15 K, Liquid | 446.78 | –
437.15 K, Liquid | 446.54 | –
438.15 K, Liquid | 446.6 | –

— the NIST ThermoML archive (doi:10.1016/j.jct.2017.08.004)
